From ChEMBL document CHEMBL1126348, “1,3,4-trisubstituted pyrrolidinones as scaffolds for construction of peptidomimetic cholecystokinin antagonists” (Bioorg Med Chem Lett, 1992)

How the values were obtained:
[1] = target: T1, Cholecystokinin receptor type A (Rattus norvegicus, UniProt P30551); assay: Displacement of [125I]CCK-OP radioligand from Cholecystokinin type A receptor in rat pancreatic acinar membrane binding assay; type: cell membranes
T1 sequence (P30551 whole entry): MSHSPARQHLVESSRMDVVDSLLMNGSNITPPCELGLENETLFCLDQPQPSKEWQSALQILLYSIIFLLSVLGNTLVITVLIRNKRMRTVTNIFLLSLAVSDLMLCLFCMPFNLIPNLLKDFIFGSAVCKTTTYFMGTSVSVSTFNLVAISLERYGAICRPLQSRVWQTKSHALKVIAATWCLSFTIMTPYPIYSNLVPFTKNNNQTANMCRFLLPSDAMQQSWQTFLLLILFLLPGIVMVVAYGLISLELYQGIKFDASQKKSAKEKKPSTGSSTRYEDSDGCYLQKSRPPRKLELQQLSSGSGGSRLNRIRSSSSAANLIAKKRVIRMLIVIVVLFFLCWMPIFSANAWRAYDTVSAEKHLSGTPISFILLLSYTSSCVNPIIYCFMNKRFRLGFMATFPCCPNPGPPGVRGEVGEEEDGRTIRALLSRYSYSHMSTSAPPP

[2] = target: T2, Cholecystokinin receptor type A (Rattus norvegicus) (UniProt P30551); assay: Effective dose of compound causing reversal of cholecystokinin-8 (CCK-8) receptor induced delayed gastric emptying in the rat when administered orally; type: functional; conditions: Stomach
T2 sequence (whole entry): T1 sequence (P30551 whole entry)

[3] = target: T2, Cholecystokinin receptor type A (Rattus norvegicus); assay: Effective dose of compound causing reversal of cholecystokinin-8 (CCK-8) receptor induced delayed gastric emptying in the rat when administered intraperitoneally; type: functional; conditions: Stomach
[4] = target: T3, Cholecystokinin receptor type A (Cavia porcellus, UniProt Q63931); assay: Compound was tested for competitive blocking of guinea pig ileal smooth muscle strip contraction to cholecystokinin-8 (CCK-8) receptor; type: functional; conditions: read-out: pA2 (converted)
T3 sequence (Q63931 whole entry): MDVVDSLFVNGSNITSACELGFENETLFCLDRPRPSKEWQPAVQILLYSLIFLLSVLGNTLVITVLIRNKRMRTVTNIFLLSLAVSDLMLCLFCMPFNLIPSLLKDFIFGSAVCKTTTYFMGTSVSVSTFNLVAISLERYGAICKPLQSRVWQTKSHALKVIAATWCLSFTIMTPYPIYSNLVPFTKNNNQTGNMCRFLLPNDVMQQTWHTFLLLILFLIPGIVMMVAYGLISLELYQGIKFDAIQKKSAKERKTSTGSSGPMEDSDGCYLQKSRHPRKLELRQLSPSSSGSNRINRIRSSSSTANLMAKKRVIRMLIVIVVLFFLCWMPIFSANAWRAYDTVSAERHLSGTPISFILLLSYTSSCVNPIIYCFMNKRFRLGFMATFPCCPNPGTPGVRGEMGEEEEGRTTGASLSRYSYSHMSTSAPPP

Row | IC50 [1] [nM] | SMILES | also measured
1 | 360 | O=C(N[C@H]1C(=O)N(c2ccccc2)C[C@@H]1C(=O)O)c1cc2ccccc2[nH]1 | –
2 | 62 | O=C(N[C@@H]1C(=O)N(c2ccccc2F)C[C@@H]1C(=O)O)c1ccc2ccccc2c1 | –
3 | 16 | O=C(N[C@@H]1C(=O)N(c2ccccc2)C[C@@H]1C(=O)O)c1ccc2ccccc2c1 | ED50 [2]: 1.8 mg/kg; ED50 [3]: 0.41 mg/kg; Kb [4]: 6.31 nM
4 | > 1000 | CC(C)(C)OC(=O)[C@H]1CN(c2ccccc2)C(=O)[C@H]1NC(=O)c1ccc2ccccc2c1 | –
5 | 290 | O=C(N[C@H]1C(=O)N(c2ccccc2)C[C@@H]1C(=O)O)c1ccc2ccccc2c1 | –
6 | 22 | CCCCCN(CCCCC)C(=O)C(CCC(=O)O)NC(=O)c1ccc(Cl)c(Cl)c1 (centres undefined) [LORGLUMIDE] | –
7 | 1290 | O=C(N[C@@H]1C(=O)N(Cc2ccccc2)C[C@@H]1C(=O)O)c1ccc2ccccc2c1 | –
8 | 550 | O=C(N[C@@H]1C(=O)N(Cc2ccccc2)C[C@@H]1C(=O)O)c1cc2ccccc2[nH]1 | –
9 | 18.5 | O=C(N[C@@H]1C(=O)N(c2ccccc2)C[C@@H]1C(=O)O)c1cc2ccccc2[nH]1 | –
10 | > 1000 | O=C(O)[C@H]1CN(c2ccccc2)C(=O)[C@H]1NS(=O)(=O)c1ccc2ccccc2c1 | –
11 | 170 | O=C(N[C@@H]1C(=O)N(c2ccccc2F)C[C@@H]1C(=O)O)c1cnc2ccccc2c1 | –
